How the values were obtained:
CobR (corrin reductase) [1] = biological target: T1, CobR (corrin reductase) (Brucella melitensis, UniProt Q8YHT7); conditions: reference without excess FAD 70 °C, 50 mM NaPi, 100 mM NaCl pH 6.5, 125°/h, irreversible unfolding
T1 construct: gene BMEI0709

CobR (corrin reductase) [2] = biological target: T1, CobR (corrin reductase); conditions: crystals grown with 2 mM FAD, pH 4.6; FAD in both active sites; second site (additional folded FAD per subunit)

T1 sequence (Q8YHT7 1-173): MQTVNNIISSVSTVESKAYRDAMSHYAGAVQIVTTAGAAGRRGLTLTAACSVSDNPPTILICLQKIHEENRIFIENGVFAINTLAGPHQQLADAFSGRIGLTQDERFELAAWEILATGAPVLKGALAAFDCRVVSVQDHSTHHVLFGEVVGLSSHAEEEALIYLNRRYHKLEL

Cc1cc2nc3c(=O)[nH]c(=O)nc-3n(C[C@H](O)[C@H](O)[C@H](O)COP(=O)(O)OP(=O)(O)OC[C@H]3O[C@@H](n4cnc5c(N)ncnc54)[C@H](O)[C@@H]3O)c2cc1C [FAD]
apparent Tm with excess FAD (CobR (corrin reductase) [1]): 80 °C
X-ray crystallography, 2.2 Å (CobR (corrin reductase) [2]): FAD is seen occupying both active sites of the homodimer
